Reference: US20140155384A1, “COMPOUNDS AND METHODS OF TREATING DIABETES” (Medivation Technologies, Inc., priority 2011, published 2014)

Assays:
[1] = biological target: T1, rat adrenergic α1B receptor (Rattus norvegicus, UniProt P15823); assay: Radioligand binding, adrenergic α1B receptor ([3H]Prazosin); conditions: 0.1 μM compound, Wistar rat liver, read-out: Percentage inhibition of ligand binding, Adrenergic α1B
T1 construct: rat adrenergic α1B receptor obtained from Wistar Rat liver; from tissue; host or cells: Wistar rat liver
T1 sequence (P15823 1-515): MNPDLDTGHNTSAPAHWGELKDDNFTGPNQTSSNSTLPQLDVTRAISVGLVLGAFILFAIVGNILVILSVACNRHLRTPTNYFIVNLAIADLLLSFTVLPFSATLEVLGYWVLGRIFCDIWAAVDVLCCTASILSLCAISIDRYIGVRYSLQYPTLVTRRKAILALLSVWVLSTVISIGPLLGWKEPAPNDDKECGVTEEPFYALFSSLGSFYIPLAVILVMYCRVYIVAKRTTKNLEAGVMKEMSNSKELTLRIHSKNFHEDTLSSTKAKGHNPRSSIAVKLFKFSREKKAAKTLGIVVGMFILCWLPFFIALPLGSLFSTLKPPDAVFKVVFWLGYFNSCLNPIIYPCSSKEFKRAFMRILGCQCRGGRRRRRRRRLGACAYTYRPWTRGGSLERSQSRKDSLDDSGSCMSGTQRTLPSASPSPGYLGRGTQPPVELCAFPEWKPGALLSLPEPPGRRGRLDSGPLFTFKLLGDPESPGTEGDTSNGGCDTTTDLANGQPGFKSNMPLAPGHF
Summary of the method: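 Wistar rat liver α1B receptor preparation incubated with 0.25 nM [3H]prazosin and compound for 60 min at 25° C in 50 mM Tris-HCl pH 7.4, 0.5 mM EDTA; nonspecific binding defined with 10 μM phentolamine.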

[2] = biological target: T2, human recombinant adrenergic α1D receptor (Homo sapiens, UniProt P25100); assay: Radioligand binding, adrenergic α1D receptor ([3H]Prazosin); conditions: 0.1 μM compound; HEK-293 cells; 0.6 nM [3H]Prazosin; read-out: Percentage inhibition of ligand binding, Adrenergic α1D
T2 construct: expressed in transfected cells; host or cells: HEK-293
T2 sequence (P25100 1-572): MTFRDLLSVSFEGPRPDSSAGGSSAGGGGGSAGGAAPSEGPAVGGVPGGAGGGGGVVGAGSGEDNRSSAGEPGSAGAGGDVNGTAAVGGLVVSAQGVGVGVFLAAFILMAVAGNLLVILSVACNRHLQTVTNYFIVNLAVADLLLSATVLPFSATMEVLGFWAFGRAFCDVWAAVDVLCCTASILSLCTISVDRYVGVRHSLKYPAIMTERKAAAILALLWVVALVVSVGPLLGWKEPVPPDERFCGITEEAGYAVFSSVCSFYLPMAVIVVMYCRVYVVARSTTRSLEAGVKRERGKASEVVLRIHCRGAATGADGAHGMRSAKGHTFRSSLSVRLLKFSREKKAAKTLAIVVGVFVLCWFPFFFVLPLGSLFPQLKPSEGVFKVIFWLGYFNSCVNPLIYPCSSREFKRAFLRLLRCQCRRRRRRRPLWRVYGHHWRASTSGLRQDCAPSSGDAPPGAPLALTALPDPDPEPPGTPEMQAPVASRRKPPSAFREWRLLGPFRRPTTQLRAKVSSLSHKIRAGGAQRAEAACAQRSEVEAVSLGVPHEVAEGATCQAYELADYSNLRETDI
Method: Compounds were incubated with 0.6 nM [3H]Prazosin for 60 min at 25° C. Non-specific binding was estimated in the presence of 10 μM phentolamine. Receptor proteins were filtered and washed, the filters were then counted to determine [3H]Prazosin specifically bound. Compounds were screened at 1 μM or lower, using 1% DMSO as vehicle. Biochemical assay results are presented as the percent inhibition of specific binding in Table 2.

[3] = biological target: T3, human recombinant adrenergic α2A receptor (Homo sapiens, UniProt P08913); assay: Radioligand binding, adrenergic α2A receptor ([3H]MK-912); conditions: 0.1 μM compound; Sf9 cells; 1 nM [3H]MK-912; read-out: Percentage inhibition of ligand binding, Adrenergic α2A
T3 construct: expressed in transfected cells; host or cells: insect Sf9 cells
T3 sequence (P08913 1-465): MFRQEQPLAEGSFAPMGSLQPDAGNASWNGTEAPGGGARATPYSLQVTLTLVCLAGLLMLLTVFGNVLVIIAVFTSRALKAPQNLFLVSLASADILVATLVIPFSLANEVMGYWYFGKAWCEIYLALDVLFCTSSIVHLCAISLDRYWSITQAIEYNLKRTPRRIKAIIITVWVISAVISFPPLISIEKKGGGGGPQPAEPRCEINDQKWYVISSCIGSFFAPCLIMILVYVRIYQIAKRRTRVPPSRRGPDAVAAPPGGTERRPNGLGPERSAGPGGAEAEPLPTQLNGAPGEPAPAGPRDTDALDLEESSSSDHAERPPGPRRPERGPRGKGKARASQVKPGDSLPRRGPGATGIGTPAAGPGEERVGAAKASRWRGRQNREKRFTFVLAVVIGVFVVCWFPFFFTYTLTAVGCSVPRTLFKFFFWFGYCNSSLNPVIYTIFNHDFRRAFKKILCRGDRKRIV
Summary of the method: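 Percent inhibition of specific [3H]MK-912 (1 nM) binding measured by filtration counting, compounds tested at ≤1 μM in 1% DMSO. Receptor: human α2A from Sf9 cells; incubation 60 min, 25 °C, pH 7.4; 10 μM WB-4101 defined nonspecific binding.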

[4] = biological target: T4, human recombinant adrenergic α2B receptor (Homo sapiens, UniProt P18089); assay: Radioligand binding, adrenergic α2B receptor ([3H]Rauwolscine); conditions: 0.1 μM compound, CHO-K1 cells, read-out: Percentage inhibition of ligand binding, Adrenergic α2B
T4 construct: expressed in transfected cells; host or cells: CHO-K1
T4 sequence (P18089 1-450): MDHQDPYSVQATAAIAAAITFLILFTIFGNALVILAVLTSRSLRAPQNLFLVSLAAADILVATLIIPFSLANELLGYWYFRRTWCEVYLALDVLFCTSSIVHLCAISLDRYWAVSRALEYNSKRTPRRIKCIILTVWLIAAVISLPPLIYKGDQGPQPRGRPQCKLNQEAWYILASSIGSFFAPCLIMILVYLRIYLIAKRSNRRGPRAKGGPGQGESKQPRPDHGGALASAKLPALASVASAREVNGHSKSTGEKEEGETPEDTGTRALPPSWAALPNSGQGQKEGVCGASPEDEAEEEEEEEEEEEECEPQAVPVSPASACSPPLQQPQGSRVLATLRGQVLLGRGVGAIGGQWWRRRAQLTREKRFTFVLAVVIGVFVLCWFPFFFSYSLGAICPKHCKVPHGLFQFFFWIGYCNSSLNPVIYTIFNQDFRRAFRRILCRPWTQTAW
Summary of the method: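 Percent inhibition of specific [3H]Rauwolscine (2.5 nM) binding, compounds at ≤1 μM, 1% DMSO vehicle, 10 μM prazosin defining nonspecific. Receptor: human α2B expressed in CHO-K1 cells, 60 min incubation at 25 °C in Tris-HCl pH 7.4 buffer (MgCl2, EDTA, BSA); filtered, washed, counted.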

| Structure (SMILES) | inhibition at 0.1 µM [1] | inhibition at 0.1 µM [2] | inhibition at 0.1 µM [3] | inhibition at 0.1 µM [4] |
| --- | --- | --- | --- | --- |
| Cc1ccc2c(c1)c1c(n2-c2ccc(-c3cnc(N(C)C)nc3)cn2)CCN(C)C1 [Compound No. 138, 5-(6-(2,8-dimethyl-3,4-dihydro-1H-pyrido[4,3-b]indol-5(2H)-yl)pyridin-3-yl)-N,N-dimethylpyrimidin-2-amine] | 73% | 73% | 40% | 82% |
| CC(=O)Nc1ccc(-c2ccc(-n3c4c(c5cc(C)ccc53)CN(C)CC4)nc2)cn1 [Compound No. 139, N-(6′-(2,8-dimethyl-3,4-dihydro-1H-pyrido[4,3-b]indol-5(2H)-yl)-3,3′-bipyridin-6-yl)acetamide] | 55% | 45% | 18% | 59% |
| Cc1ccc2c(c1)c1c(n2-c2ccc(-c3ccc(F)cc3)cn2)CCN(C)C1 [Compound No. 140, 5-(5-(4-fluorophenyl)pyridin-2-yl)-2,8-dimethyl-2,3,4,5-tetrahydro-1H-pyrido[4,3-b]indole] | 69% | 56% | 70% | 96% |
| Cc1ccc2c(c1)c1c(n2-c2ccc(-c3cccc4ccccc34)cn2)CCN(C)C1 [Compound No. 141, 2,8-dimethyl-5-(5-(naphthalen-1-yl)pyridin-2-yl)-2,3,4,5-tetrahydro-1H-pyrido[4,3-b]indole] | 62% | 50% | 69% | 82% |
| Cc1ccc2c(c1)c1c(n2-c2ccc(-c3ccc(F)nc3)cn2)CCN(C)C1 [Compound No. 142, 5-(6′-fluoro-3,3′-bipyridin-6-yl)-2,8-dimethyl-2,3,4,5-tetrahydro-1H-pyrido[4,3-b]indole] | 83% | 78% | 59% | 91% |
| Cc1csc(-c2ccc(-n3c4c(c5cc(C)ccc53)CN(C)CC4)nc2)c1 [Compound No. 144, 2,8-dimethyl-5-(5-(4-methylthiophen-2-yl)pyridin-2-yl)-2,3,4,5-tetrahydro-1H-pyrido[4,3-b]indole] | 68% | 52% | 72% | 95% |
| Cc1ccc2c(c1)c1c(n2-c2ccc(-c3ccc(S(N)(=O)=O)cc3)cn2)CCN(C)C1 [Compound No. 145, 4-(6-(2,8-dimethyl-3,4-dihydro-1H-pyrido[4,3-b]indol-5(2H)-yl)pyridin-3-yl)benzenesulfonamide] | 86% | 73% | 71% | 83% |
| Cc1ccc2c(c1)c1c(n2-c2ccc(-c3ccnn3C)cn2)CCN(C)C1 [Compound No. 146, 2,8-dimethyl-5-(5-(1-methyl-1H-pyrazol-5-yl)pyridin-2-yl)-2,3,4,5-tetrahydro-1H-pyrido[4,3-b]indole] | 70% | 79% | 26% | 54% |
| Cc1ccc2c(c1)c1c(n2-c2ccc(-c3cccc4[nH]ncc34)cn2)CCN(C)C1 [Compound No. 147, 5-(5-(1H-indazol-4-yl)pyridin-2-yl)-2,8-dimethyl-2,3,4,5-tetrahydro-1H-pyrido[4,3-b]indole] | 72% | 61% | 46% | 43% |
| Cc1ccc2c(c1)c1c(n2-c2ccc(-c3sccc3C)cn2)CCN(C)C1 [Compound No. 148, 2,8-dimethyl-5-(5-(3-methylthiophen-2-yl)pyridin-2-yl)-2,3,4,5-tetrahydro-1H-pyrido[4,3-b]indole] | 63% | 68% | 50% | 90% |
| Cc1cc(C)c2c(c1)c1c(n2-c2cscc2-c2ccncc2)CCN(C)C1 [Compound No. 149] | 16% | 8% | -6% | 14% |
| Cc1ccc2c(c1)c1c(n2-c2cscc2-c2ccnn2C)CCN(C)C1 [Compound No. 150] | 72% | 73% | 55% | 77% |
| Cc1ccc2c(c1)c1c(n2-c2cscc2-c2cc3ccccc3s2)CCN(C)C1 [Compound No. 151] | 59% | 67% | 96% | 99% |
| Cc1ccc2c(c1)c1c(n2-c2cscc2C(=O)N(C)C)CCN(C)C1 [Compound No. 152] | 10% | 16% | 9% | 51% |
| CNC(=O)c1cccc(-c2cscc2-n2c3c(c4cc(C)ccc42)CN(C)CC3)c1 [Compound No. 154] | 46% | 70% | 20% | 42% |
| CNC(=O)c1ccc(-c2cscc2-n2c3c(c4cc(C)ccc42)CN(C)CC3)cc1 [Compound No. 155] | 43% | 63% | 9% | 74% |
| Cc1ccc2c(c1)c1c(n2-c2ccc(-c3ccc(C)nc3)cn2)CCN(C)C1 [Compound No. 156, 2,8-dimethyl-5-(6′-methyl-3,3′-bipyridin-6-yl)-2,3,4,5-tetrahydro-1H-pyrido[4,3-b]indole] | 78% | 69% | 40% | 78% |
